Consider 13 compounds from patent US10550102B2, “Indane and indoline derivatives and the use thereof as soluble guanylate cyclase activators” (NOVARTIS AG, priority 2014, dated 2020).

Sequence of soluble guanylate cyclase (human GUCYA3 and GUCYB3) overexpressed in CHO cells (Q02108 whole entry partner): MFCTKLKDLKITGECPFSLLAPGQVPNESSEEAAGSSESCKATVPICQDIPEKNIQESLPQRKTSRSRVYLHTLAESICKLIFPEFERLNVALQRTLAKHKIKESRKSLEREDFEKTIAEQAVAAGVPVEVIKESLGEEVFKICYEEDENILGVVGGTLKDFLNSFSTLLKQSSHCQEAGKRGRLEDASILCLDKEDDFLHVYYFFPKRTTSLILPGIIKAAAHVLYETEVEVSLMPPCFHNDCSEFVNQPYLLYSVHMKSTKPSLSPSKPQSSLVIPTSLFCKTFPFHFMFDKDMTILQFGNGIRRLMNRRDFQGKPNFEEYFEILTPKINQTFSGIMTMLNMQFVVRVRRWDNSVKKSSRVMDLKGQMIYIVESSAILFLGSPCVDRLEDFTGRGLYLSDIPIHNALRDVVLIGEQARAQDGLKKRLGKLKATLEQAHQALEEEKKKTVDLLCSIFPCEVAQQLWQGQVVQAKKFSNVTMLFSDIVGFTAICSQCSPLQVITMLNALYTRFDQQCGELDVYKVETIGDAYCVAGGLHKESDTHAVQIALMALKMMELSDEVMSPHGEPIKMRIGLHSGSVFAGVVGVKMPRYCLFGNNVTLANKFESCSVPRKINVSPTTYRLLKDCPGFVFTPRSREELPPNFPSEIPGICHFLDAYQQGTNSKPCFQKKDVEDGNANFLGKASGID
Sequence of soluble guanylate cyclase (human GUCYA3 and GUCYB3) overexpressed in CHO cells (Q02153 whole entry): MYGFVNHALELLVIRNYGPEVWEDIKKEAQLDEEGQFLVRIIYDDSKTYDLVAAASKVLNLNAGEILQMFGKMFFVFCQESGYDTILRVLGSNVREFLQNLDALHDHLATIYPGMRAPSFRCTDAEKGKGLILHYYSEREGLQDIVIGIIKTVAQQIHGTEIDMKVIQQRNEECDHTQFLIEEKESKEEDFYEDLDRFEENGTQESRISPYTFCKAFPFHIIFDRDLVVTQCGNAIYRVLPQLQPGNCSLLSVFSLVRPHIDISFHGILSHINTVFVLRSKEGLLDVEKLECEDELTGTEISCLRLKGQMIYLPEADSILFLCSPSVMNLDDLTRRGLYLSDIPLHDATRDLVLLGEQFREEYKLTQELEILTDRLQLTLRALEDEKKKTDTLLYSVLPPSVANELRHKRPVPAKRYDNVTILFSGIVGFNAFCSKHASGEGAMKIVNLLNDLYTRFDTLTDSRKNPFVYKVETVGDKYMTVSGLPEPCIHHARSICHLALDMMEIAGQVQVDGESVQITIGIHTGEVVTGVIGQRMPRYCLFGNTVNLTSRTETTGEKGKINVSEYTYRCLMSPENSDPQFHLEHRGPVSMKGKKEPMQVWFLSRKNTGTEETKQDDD

One experiment has as its target soluble guanylate cyclase (human GUCYA3 and GUCYB3) overexpressed in CHO cells (Homo sapiens (Human), UniProt Q02108+Q02153). The experiment in a line: CHO cellular assay (cGMP production, Cisbio cGMP HTRF kit). Type of experiment: cell-based. Conditions: CHO GUCY clone 8E10, cGMP production, assay buffer with 1 mM IBMX and 20 uM ODQ, 1 h room temperature; minimum quantification limit 0.5 nM (listed 0.5 nM means ≤0.5 nM); read-out: EC50. The essentials:
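Stable CHO-K1 clone 8E10 expressing human sGC (GUCYA3/GUCYB3), 3000 cells/well, exposed 1 h at room temperature to activators in HBSS, 0.1% BSA, 1 mM IBMX, 20 uM ODQ, 0.5% DMSO final. cGMP was measured by HTRF and interpolated from a standard curve. EC50 came from a 4-parameter sigmoidal fit.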
For orientation: TR-FRET usually uses a lanthanide donor and a delayed reading to cut background.
With `CCc1cc(Cn2ccc3cccc(-c4cccc(-n5ncc(C(=O)O)c5CC)n4)c32)ccc1C1CCN(C(=O)C2CC2)CC1` [Example 27], the 50% effective concentration (EC50) – broadly, the concentration needed to bring the measured effect to its halfway point – was at most 0.5 nM.
Still for that read-out and setting: the figure for `CCOC(=O)N1CCC(c2ccc(O[C@H]3CCc4cccc(-c5cccc(-n6ncc(C(=O)O)c6CC)n5)c43)cc2CC)CC1` [Example 29, (S)-1-(6-(3-(4-(1-(Ethoxycarbonyl)piperidin-4-yl)-3-ethylphenoxy)-2,3-dihydro-1H-inden-4-yl)pyridin-2-yl)-5-ethyl-1H-pyrazole-4-carboxylic Acid] is 1 nM; for `CCc1cc(O[C@H]2CCc3cccc(-c4cccc(-n5ncc(C(=O)O)c5CC)n4)c32)ccc1C1CCN(C(=O)[C@H](C)O)CC1` [Example 30] it is at most 0.5 nM.
Regarding `CCC[C@H](O)C(=O)N1CCC(c2ccc(O[C@H]3CCc4cccc(-c5cccc(-n6ncc(C(=O)O)c6CC)n5)c43)cc2CC)CC1` [Example 31-1], the concentration for a half-maximal effect (EC50) was at most 0.5 nM.
The same measure, in the same setting: the figure for `CCc1cc(O[C@H]2CCc3cccc(-c4cccc(-n5ncc(C(=O)O)c5CC)n4)c32)ccc1C1CCN(C(=O)[C@@H](O)CC)CC1` [Example 31-2] is at most 0.5 nM; for `CCc1cc(O[C@H]2CCc3cccc(-c4cccc(-n5ncc(C(=O)O)c5CC)n4)c32)ccc1C1CCN(C(=O)[C@@H](C)CO)CC1` [Example 31-3, 5-Ethyl-1-(6-((S)-3-(3-ethyl-4-(1-((S)-3-hydroxy-2-methylpropanoyl)piperidin-4-yl)phenoxy)-2-3-dihydro-1H-inden-4-yl)pyridin-2-yl)-1H-pyrazole-4-carboxylic acid] it is at most 0.5 nM.
Same read-out and setting: the same measure for `CCc1cc(O[C@H]2CCc3cccc(-c4cccc(-n5ncc(C(=O)O)c5CC)n4)c32)ccc1C1CCN(C(=O)C2(O)CCC2)CC1` [Example 31-4, (S)-5-Ethyl-1-(6-(3-(3-ethyl-4-(1-(1-hydroxycyclobutanecarbonyl)piperidin-4-yl)phenoxy)-2,3-dihydro-1H-inden-4-yl)pyridin-2-yl)-1H-pyrazole-4-carboxylic acid]: at most 0.5 nM.
With `CCc1cc(O[C@H]2CCc3cccc(-c4cccc(-n5ncc(C(=O)O)c5CC)n4)c32)ccc1C1CCN(C(=O)C2(O)CC2)CC1` [Example 33, (S)-5-ethyl-1-(6-(3-(3-ethyl-4-(1-(1-hydroxycyclopropanecarbonyl)piperidin-4-yl)phenoxy)-2,3-dihydro-1H-inden-4-yl)pyridin-2-yl)-1H-pyrazole-4-carboxylic Acid], the 50% effective concentration (EC50) is at most 0.5 nM.
Consider `CCOC(=O)N1CCC(c2ccc(NC3CCc4cccc(-c5cccc(-n6ncc(C(=O)O)c6C)n5)c43)c(C)c2)CC1` (stereo not shown) [Example 52-4], for which the EC50 is at most 0.5 nM.
On to `COCCOC(=O)N1CCC(c2ccc(NC3CCc4cccc(-c5cccc(-n6ncc(C(=O)O)c6C)n5)c43)c(C)c2)CC1` (stereo not shown) [Example 52-5], for which the EC50 was 1 nM.
As to `C=C(C)OC(=O)N1CCC(c2ccc(NC3CCc4cccc(-c5cccc(-n6ncc(C(=O)O)c6C)n5)c43)c(C)c2)CC1` (stereo not shown) [Example 52-6, 5-Methyl-1-(6-(3-((2-methyl-4-(1-((prop-1-en-2-yloxy)carbonyl)piperidin-4-yl)phenyl)amino)-2,3-dihydro-1H-inden-4-yl)pyridin-2-yl)-1H-pyrazole-4-carboxylic acid], the half-maximal effective concentration (EC50) was determined as 1.4 nM.
`CCc1cc(O[C@H]2CCc3cccc(-c4cccc(-n5ncc(C(=O)O)c5CC)n4)c32)ccc1C1CCN(C(=O)OCc2ccccc2)CC1` [Example 64-1, (S)-1-(6-(3-(4-(1-((Benzyloxy)carbonyl)pipendin-4-yl)-3-ethylphenoxy)-2,3-dihydro-1H-inden-4-yl)pyridin-2-yl)-5-ethyl-1H-pyrazole-4-carboxylic acid]: the EC50 was found to be 2 nM.

Staying with this experiment, now noted: EC50 (nM).
Take `CCc1cc(O[C@H]2CCc3cccc(-c4cccc(-n5ncc(C(=O)O)c5CC)n4)c32)ccc1C1CCN(C(=O)OCC(C)C)CC1` [Example 64-2, (S)-5-Ethyl-1-(6-(3-(3-ethyl-4-(1-(isobutoxycarbonyl)piperidin-4-yl)phenoxy)-2,3-dihydro-1H-inden-4-yl)pyridin-2-yl)-1H-pyrazole-4-carboxylic acid]: the EC50 amounted to 3 nM.
